This note sets out measurements from patent publication US8309581B2, “Benzimidazole derivatives” (Hoffmann-La Roche Inc., priority 2009, dated 2012).

The experiment concerns the target T1, FXR ligand binding domain (Homo sapiens, UniProt Q96RI1).
T1 construct: made in house; host or cells: E. coli BL21 (pLysS)
T1 sequence (Q96RI1 193-472 isoform Q96RI1-2): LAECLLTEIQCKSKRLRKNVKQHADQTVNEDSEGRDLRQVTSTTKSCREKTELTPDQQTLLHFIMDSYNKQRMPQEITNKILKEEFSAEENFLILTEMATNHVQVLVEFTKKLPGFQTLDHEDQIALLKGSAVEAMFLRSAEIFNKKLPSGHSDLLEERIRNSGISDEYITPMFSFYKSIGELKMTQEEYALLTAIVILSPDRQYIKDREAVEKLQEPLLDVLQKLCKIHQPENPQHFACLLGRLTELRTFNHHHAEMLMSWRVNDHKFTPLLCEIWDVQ
The experiment can be described thus: Radioligand Binding Assay (scintillation proximity radioligand displacement). Conditions: GST-FXR LBD fusion protein on SPA beads, test compound 6×10^−9 M to 2.5×10^−5 M. Here is the method:
The following tests were carried out in order to determine the activity of the compounds of formula (I). Background information on the binding assay can be found in: Nichols J S et al. “Development of a scintillation proximity assay for peroxisome proliferator-activated receptor gamma ligand binding domain”, (1998) Anal. Biochem. 257: 112-119.
Bacterial and mammalian expression vectors were constructed to produce glutathione-s-transferase (GST) and Gal4 DNA binding domain (GAL) proteins fused to the ligand binding domain (LBD) of human FXR (aa 193-473). To accomplish this, the portions of the sequences encoding the FXR LBD were amplified by polymerase chain reaction (PCR) from a full-length clone by PCR and then subcloned into the plasmid vectors. The final clone was verified by DNA sequence analysis.
The induction, expression, and subsequent purification of GST-LBD fusion protein was performed in E. coli strain BL21 (pLysS) cells by standard methods (Current Protocols in Molecular Biology, Wiley Press, ed. Ausubel et al.).
Radioligand Binding Assay
Binding of test substances to the FXR ligand binding domain was assessed in a radioligand displacement assay. The assay was performed in a buffer consisting of 50 mM Hepes, pH 7.4, 10 mM NaCl, 5 mM MgCl2, 0.01% CHAPS. For each reaction well in a 96-well plate, 40 nM of GST-FXR LBD fusion protein was bound to […] glutathione ytrium silicate SPA beads (PharmaciaAmersham) in a final volume of […] by shaking. A radioligand (e.g., 20 nM of 2,N-dicyclohexyl-2-[2-(2,4 dimethoxy-phenyl)-benzoimidazol-1-yl]-acetamide) and test compounds were added, and scintillation proximity counting was performed. All binding assays were performed in 96-well plates and the amount of bound ligand was measured on a Packard TopCount using OptiPlates (Packard). Dose response curves were performed within a range of test compound concentrations from 6×10^−9 M to 2.5×10^−5 M and IC50 values were calculated.
On the technique in general: In a scintillation proximity assay essentially only radioactivity close to the scintillant gives light.

In general, IC50 refers to the point on the concentration scale where inhibition reaches its midpoint. High values mean a need for much substance, low ones inhibition by little substance.

Consider `Fc1cc2nc(-c3cccnc3OCC3CCCC3)n(CC3CCCCC3)c2cc1F` [Example 1, 1-Cyclohexylmethyl-2-(2-cyclopentylmethoxy-pyridin-3-yl)-5,6-difluoro-1H-benzoimidazole], for which the IC50 was 0.2 µM.
Under `Fc1cc2nc(-c3cccnc3OCC3CC3)n(CC3CCCCC3)c2cc1F` [Example 2, 1-Cyclohexylmethyl-2-(2-cyclopropylmethoxy-pyridin-3-yl)-5,6-difluoro-1H-benzoimidazole] stands 2.9 µM; under `Fc1cc2nc(-c3cccnc3OCc3ccccc3Cl)n(CC3CCCCC3)c2cc1F` [Example 3, 2-[2-(2-Chloro-benzyloxy)-pyridin-3-yl]-1-cyclohexylmethyl-5,6-difluoro-1H-benzoimidazole], 0.7 µM.
The molecule `O=C(O)c1ccc(COc2ncccc2-c2nc3cc(F)c(F)cc3n2CC2CCCCC2)cc1` [Example 4, 4-[3-(1-Cyclohexylmethyl-5,6-difluoro-1H-benzoimidazol-2-yl)-pyridin-2-yloxymethyl]-benzoic acid] yielded an IC50 of 5.8 µM.
On to `O=C(O)COc1ccc(COc2ncccc2-c2nc3cc(F)c(F)cc3n2CC2CCCCC2)cc1` [Example 5, {4-[3-(1-Cyclohexylmethyl-5,6-difluoro-1H-benzoimidazol-2-yl)-pyridin-2-yloxymethyl]-phenoxy}-acetic acid], for which the IC50 turned out to be 12.1 µM.
The molecule `Fc1cc2nc(-c3cccnc3OCc3ccccc3Cl)n(Cc3ccccc3)c2cc1F` [Example 6, 1-Benzyl-2-[2-(2-chloro-benzyloxy)-pyridin-3-yl]-5,6-difluoro-1H-benzoimidazole] displayed an IC50 of 1.8 µM.
Under `Fc1cc2nc(-c3cccnc3OCC3CCCC3)n(Cc3ccccc3)c2cc1F` [Example 7, 1-Benzyl-2-(2-cyclopentylmethoxy-pyridin-3-yl)-5,6-difluoro-1H-benzoimidazole] stands 3.8 µM; under `Fc1cc2nc(-c3cccnc3OCC3CC3)n(Cc3ccccc3)c2cc1F` [Example 8, 1-Benzyl-2-(2-cyclopropylmethoxy-pyridin-3-yl)-5,6-difluoro-1H-benzoimidazole], 5.6 µM; under `O=C(O)c1ccc(COc2ncccc2-c2nc3cc(F)c(F)cc3n2Cc2ccccc2)cc1` [Example 9, 4-[3-(1-Benzyl-5,6-difluoro-1H-benzoimidazol-2-yl)-pyridin-2-yloxymethyl]-benzoic acid], 10.5 µM.
Regarding `O=C(O)COc1ccc(COc2ncccc2-c2nc3cc(F)c(F)cc3n2Cc2ccccc2)cc1` [Example 10, {4-[3-(1-Benzyl-5,6-difluoro-1H-benzoimidazol-2-yl)-pyridin-2-yloxymethyl]-phenoxy}-acetic acid], the IC50 stood at 12.8 µM.
The same measure for `Fc1cc2nc(-c3cccnc3OCc3ccccc3Cl)n(Cc3cccc(Cl)c3)c2cc1F` [Example 11, 1-(3-Chloro-benzyl)-2-[2-(2-chloro-benzyloxy)-pyridin-3-yl]-5,6-difluoro-1H-benzoimidazole]: 0.8 µM; for `Fc1cc2nc(-c3cccnc3OCC3CCCC3)n(Cc3cccc(Cl)c3)c2cc1F` [Example 12, 1-(3-Chloro-benzyl)-2-(2-cyclopentylmethoxy-pyridin-3-yl)-5,6-difluoro-1H-benzoimidazole]: 1.5 µM.
`Fc1cc2nc(-c3cccnc3OCC3CC3)n(Cc3cccc(Cl)c3)c2cc1F` [Example 13, 1-(3-Chloro-benzyl)-2-(2-cyclopropylmethoxy-pyridin-3-yl)-5,6-difluoro-1H-benzoimidazole] gave an IC50 of 3.6 µM.
Under `O=C(O)c1ccc(COc2ncccc2-c2nc3cc(F)c(F)cc3n2Cc2cccc(Cl)c2)cc1` [Example 14, 4-{3-[1-(3-Chloro-benzyl)-5,6-difluoro-1H-benzoimidazol-2-yl]-pyridin-2-yloxymethyl}-benzoic acid] stands 5.2 µM.
The same measure for `O=C(O)COc1ccc(COc2ncccc2-c2nc3cc(F)c(F)cc3n2Cc2cccc(Cl)c2)cc1` [Example 15, (4-{3-[1-(3-Chloro-benzyl)-5,6-difluoro-1H-benzoimidazol-2-yl]-pyridin-2-yloxymethyl}-phenoxy)-acetic acid]: 2.6 µM; for `O=C(O)CCc1ccc(Cn2c(-c3cccnc3OCC3CC3)nc3cc(F)c(F)cc32)cc1` [Example 16, 3-{4-[2-(2-Cyclopropylmethoxy-pyridin-3-yl)-5,6-difluoro-benzoimidazol-1-ylmethyl]-phenyl}-propionic acid]: 66.1 µM.
The same measure for `O=C(O)CCc1ccc(Cn2c(-c3cccnc3OCc3ccccc3Cl)nc3cc(F)c(F)cc32)cc1` [Example 17, 3-(4-{2-[2-(2-Chloro-benzyloxy)-pyridin-3-yl]-5,6-difluoro-benzoimidazol-1-ylmethyl}-phenyl)-propionic acid]: 10.2 µM; for `O=C(O)CCc1ccc(Cn2c(-c3cccnc3OCC3CCCC3)nc3cc(F)c(F)cc32)cc1` [Example 18, 3-{4-[2-(2-Cyclopentylmethoxy-pyridin-3-yl)-5,6-difluoro-benzoimidazol-1-ylmethyl]-phenyl}-propionic acid]: 30.4 µM; for `Fc1cc2nc(-c3ccc(Cl)cc3OCc3ccccc3Cl)n(CC3CCCCC3)c2cc1F` [Example 19, 2-[4-Chloro-2-(2-chloro-benzyloxy)-phenyl]-1-cyclohexylmethyl-5,6-difluoro-1H-benzoimidazole]: 0.3 µM.
For `Fc1cc2nc(-c3ccc(Cl)cc3OCC3CCCC3)n(CC3CCCCC3)c2cc1F` [Example 20, 2-(4-Chloro-2-cyclopentylmethoxy-phenyl)-1-cyclohexylmethyl-5,6-difluoro-1H-benzoimidazole], the IC50 came out at 0.2 µM.
The same measure for `Fc1cc2nc(-c3ccc(Cl)cc3OCC3CC3)n(CC3CCCCC3)c2cc1F` [Example 21, 2-(4-Chloro-2-cyclopropylmethoxy-phenyl)-1-cyclohexylmethyl-5,6-difluoro-1H-benzoimidazole]: 0.3 µM; for `Fc1cc2nc(-c3ccc(Cl)cc3OCC3CCCCC3)n(CC3CCCCC3)c2cc1F` [Example 22, 2-(4-Chloro-2-cyclohexylmethoxy-phenyl)-1-cyclohexylmethyl-5,6-difluoro-1H-benzoimidazole]: 0.2 µM.
Under `O=C(O)c1ccc(COc2cc(Cl)ccc2-c2nc3cc(F)c(F)cc3n2CC2CCCCC2)cc1` [Example 23, 4-[5-Chloro-2-(1-cyclohexylmethyl-5,6-difluoro-1H-benzoimidazol-2-yl)-phenoxymethyl]-benzoic acid] stands 0.2 µM.
The same measure for `O=C(O)c1cccc(COc2cc(Cl)ccc2-c2nc3cc(F)c(F)cc3n2CC2CCCCC2)c1` [Example 24, 3-[5-Chloro-2-(1-cyclohexylmethyl-5,6-difluoro-1H-benzoimidazol-2-yl)-phenoxymethyl]-benzoic acid]: 0.7 µM; for `O=C(O)COc1ccc(COc2cc(Cl)ccc2-c2nc3cc(F)c(F)cc3n2CC2CCCCC2)cc1` [Example 25, {4-[5-Chloro-2-(1-cyclohexylmethyl-5,6-difluoro-1H-benzoimidazol-2-yl)-phenoxymethyl]-phenoxy}-acetic acid]: 0.1 µM.
The molecule `O=C(O)CCCCCOc1cc(Cl)ccc1-c1nc2cc(F)c(F)cc2n1CC1CCCCC1` [Example 26, 6-[5-Chloro-2-(1-cyclohexylmethyl-5,6-difluoro-1H-benzoimidazol-2-yl)-phenoxy]-hexanoic acid] displayed an IC50 of 2.1 µM.
The same measure for `O=C(O)c1ccc(CCOc2cc(Cl)ccc2-c2nc3cc(F)c(F)cc3n2CC2CCCCC2)cc1` [Example 27, 4-{2-[5-Chloro-2-(1-cyclohexylmethyl-5,6-difluoro-1H-benzoimidazol-2-yl)-phenoxy]-ethyl}-benzoic acid]: 0.5 µM; for `O=C(O)Cc1ccc(COc2cc(Cl)ccc2-c2nc3cc(F)c(F)cc3n2CC2CCCCC2)cc1` [Example 28, {4-[5-Chloro-2-(1-cyclohexylmethyl-5,6-difluoro-1H-benzoimidazol-2-yl)-phenoxymethyl]-phenyl}-acetic acid]: 0.2 µM; for `O=C(O)C1CCC(COc2cc(Cl)ccc2-c2nc3cc(F)c(F)cc3n2CC2CCCCC2)CC1` (centres unmarked) [Example 29, 4-[5-Chloro-2-(1-cyclohexylmethyl-5,6-difluoro-1H-benzoimidazol-2-yl)-phenoxymethyl]-cyclohexane carboxylic acid]: 0.7 µM.
